Reference: ChEMBL document CHEMBL1201862, “PubChem BioAssay data set” (2004)
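Step 1: Grow cells in 96-well plates. Step 2: Expose to compound for 48 hours at 5 concentrations. Step 3: Interpolate endpoints linearly; if unreached, use highest concentration. At the GI50, growth is halved.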 Calls of active or inactive are those of the source. Rule as the data show it: active = GI50 up to about 1.1 µM and inactive = higher.

Assays:
Test in all cases: NCI-60 cell line screen, 48 h
[1] = test system: 786-0
[2] = test system: A549
[3] = test system: HCC 2998
[4] = test system: HL-60
[5] = test system: HT-29
[6] = test system: K562
[7] = test system: MCF7
[8] = test system: MDA-MB-231
[9] = test system: MDA-N
[10] = test system: NCI-H460
[11] = test system: NCI-H522
[12] = test system: NCI/ADR-RES
[13] = test system: OVCAR-3
[14] = test system: OVCAR-4
[15] = test system: OVCAR-5
[16] = test system: RPMI-8226
[17] = test system: SF-295
[18] = test system: SK-MEL-28
[19] = test system: SNB-19
[20] = test system: UO-31

SMILES	GI50 [1]	GI50 [2]	GI50 [3]	GI50 [4]	GI50 [5]	GI50 [6]	GI50 [7]	GI50 [8]	GI50 [9]	GI50 [10]	GI50 [11]	GI50 [12]	GI50 [13]	GI50 [14]	GI50 [15]	GI50 [16]	GI50 [17]	GI50 [18]	GI50 [19]	GI50 [20]
COc1nc(C(Cl)(Cl)Cl)c(Cl)c(O)c1Cl	> 100 µM (inactive)	> 100 µM (inactive)	> 100 µM (inactive)	> 100 µM (inactive)	> 100 µM (inactive)	> 100 µM (inactive)	> 100 µM (inactive)	> 100 µM (inactive)	> 100 µM (inactive)	> 100 µM (inactive)	49.3 µM (inactive)	> 100 µM (inactive)	> 100 µM (inactive)	> 100 µM (inactive)	> 100 µM (inactive)	> 100 µM (inactive)	> 100 µM (inactive)	> 100 µM (inactive)	> 100 µM (inactive)	> 100 µM (inactive)
Nc1ccn(C2CCC(COP(=O)(O)OCC(O)COP(=O)(O)OCC3OC(n4cc(F)c(=O)[nH]c4=O)CC3O)O2)c(=O)n1 (stereo not given)	> 76.4 µM (inactive)	0.386 µM (active)	0.656 µM (active)	0.0716 µM (active)	2.79 µM (inactive)	2.61 µM (inactive)	< 0.01 µM (active)	44.1 µM (inactive)	8.34 µM (inactive)	< 0.01 µM (active)	0.628 µM (active)	0.215 µM (active)	23.2 µM (inactive)	> 23.7 µM (inactive)	9.93 µM (inactive)	10.4 µM (inactive)	0.0459 µM (active)	26.4 µM (inactive)	0.211 µM (active)	0.0622 µM (active)
COc1ccc(OC)c(C[P+](c2ccccc2)(c2ccccc2)c2ccccc2)c1	3.38 µM (inactive)	3.56 µM (inactive)	3.54 µM (inactive)	0.434 µM (active)	0.45 µM (active)	0.445 µM (active)	2.11 µM (inactive)	3.27 µM (inactive)	0.753 µM (active)	3.84 µM (inactive)	9.23 µM (inactive)	> 100 µM (inactive)	2.54 µM (inactive)	4.01 µM (inactive)	5.27 µM (inactive)	0.33 µM (active)	3.96 µM (inactive)	3.26 µM (inactive)	2.67 µM (inactive)	21.6 µM (inactive)
CC(=O)OC1C2CCC3CC2C2(SCCS2)C31 (stereo not given)	> 100 µM (inactive)	> 100 µM (inactive)	> 100 µM (inactive)	70.8 µM (inactive)	> 100 µM (inactive)	> 100 µM (inactive)	> 100 µM (inactive)	51.9 µM (inactive)	> 100 µM (inactive)	> 100 µM (inactive)	> 100 µM (inactive)	> 100 µM (inactive)	> 100 µM (inactive)	> 100 µM (inactive)	> 100 µM (inactive)	> 100 µM (inactive)	> 100 µM (inactive)	> 100 µM (inactive)	> 100 µM (inactive)	> 100 µM (inactive)
N#Cc1c(O)c(/C=N/c2ncccn2)c(=O)n2c1[nH]c1ccccc12	> 100 µM (inactive)	> 100 µM (inactive)	> 100 µM (inactive)	> 100 µM (inactive)	> 100 µM (inactive)	> 100 µM (inactive)	88.9 µM (inactive)	> 100 µM (inactive)	> 100 µM (inactive)	> 100 µM (inactive)	> 100 µM (inactive)	> 100 µM (inactive)	> 100 µM (inactive)	> 100 µM (inactive)	> 100 µM (inactive)	> 100 µM (inactive)	> 100 µM (inactive)	> 100 µM (inactive)	> 100 µM (inactive)	> 100 µM (inactive)
CCCCSC1=N/C(=C\c2ccccc2O)C(=O)N1	69.7 µM (inactive)	20.7 µM (inactive)	53.2 µM (inactive)	94.6 µM (inactive)	70.6 µM (inactive)	78.3 µM (inactive)	33.5 µM (inactive)	34 µM (inactive)	76 µM (inactive)	53.2 µM (inactive)	69 µM (inactive)	66.7 µM (inactive)	> 100 µM (inactive)	66.1 µM (inactive)	> 100 µM (inactive)	75.5 µM (inactive)	92 µM (inactive)	> 100 µM (inactive)	77.8 µM (inactive)	21.6 µM (inactive)
CCOc1ccc(/N=C/c2ccnc3ccccc23)cc1	57.1 µM (inactive)	> 86.3 µM (inactive)	32.4 µM (inactive)	2.05 µM (inactive)	27.3 µM (inactive)	3.11 µM (inactive)	5.98 µM (inactive)	20.7 µM (inactive)	30.1 µM (inactive)	61.7 µM (inactive)	36.3 µM (inactive)	35.9 µM (inactive)	31 µM (inactive)	62.8 µM (inactive)	99.3 µM (inactive)	6.53 µM (inactive)	49.1 µM (inactive)	50.1 µM (inactive)	82.8 µM (inactive)	45.2 µM (inactive)
C[Si](C)(C)C1=C([Si](C)(C)C)C(Cl)(Cl)C1=O	2.58 µM (inactive)	19.8 µM (inactive)	8.36 µM (inactive)	0.217 µM (active)	3.11 µM (inactive)	0.879 µM (active)	6.15 µM (inactive)	2.8 µM (inactive)	1.99 µM (inactive)	12.4 µM (inactive)	1.27 µM (inactive)	3.42 µM (inactive)	2.18 µM (inactive)	3.28 µM (inactive)	7.28 µM (inactive)	0.8 µM (active)	9.1 µM (inactive)	2.79 µM (inactive)	16 µM (inactive)	2.34 µM (inactive)
COc1ccc2nc3ccccc3c(NCCN(C)CCCl)c2c1	0.21 µM (active)	0.479 µM (active)	0.67 µM (active)	0.259 µM (active)	0.377 µM (active)	0.337 µM (active)	0.587 µM (active)	1.15 µM (inactive)	0.344 µM (active)	0.322 µM (active)	0.282 µM (active)	0.647 µM (active)	0.736 µM (active)	0.908 µM (active)	1.03 µM (active)	0.247 µM (active)	0.728 µM (active)	1.69 µM (inactive)	1.12 µM (inactive)	1.16 µM (inactive)
CC(=O)Oc1ccc(/C=C/C(=O)OCCCOC(=O)/C=C/c2ccc(OC(C)=O)c(OC(C)=O)c2)cc1OC(C)=O	93.1 µM (inactive)	> 100 µM (inactive)	> 100 µM (inactive)	< 0.01 µM (active)	> 100 µM (inactive)	> 100 µM (inactive)	> 100 µM (inactive)	> 100 µM (inactive)	> 100 µM (inactive)	> 100 µM (inactive)	> 100 µM (inactive)	> 100 µM (inactive)	> 100 µM (inactive)	> 100 µM (inactive)	> 100 µM (inactive)	> 100 µM (inactive)	77.4 µM (inactive)	> 100 µM (inactive)	> 100 µM (inactive)	> 100 µM (inactive)
